Assay results from patent publication US6770632B1, “Folypolyglutamyl synthetase gene transfer to enhance antifolate” (priority 1999, dated 2004).
Several values for one entry are separate records, joined by “and”; a condition that tells them apart may be missing. Identical values can stand only once. Like-named read-outs stand apart in the source and are kept apart here.

How the values were obtained:
[1] = test system: 9L cells transfected with CD; settings: 9L cells stably transfected with E. coli cytosine deaminase cDNA; cited from earlier work
[2] = test system: cocultures with nitroreductase-expressing cells; settings: cited from earlier work
[3] = test system: rhabdomyosarcoma cell line; settings: rhabdomyosarcoma cell line transfected with rabbit carboxylesterase cDNA; cited from earlier work
[4] = test system: 9L/BAG cells; assay: Conditioned medium colony formation of 9L/BAG cells; type: cell-based, rat
Experimental: Four mL conditioned medium+2 mL fresh medium were added to 10-cm-diameter plates containing 9L/BAG cells plated overnight (1000 cells/dish, with a clonogenic efficiency of approximately 20%). Six days later, the cells were fixed with 4% paraformaldehyde in PBS. […] The next day, blue colonies greater than 1 mm in diameter were counted.
This conditioned medium was then added to 9L/BAG cells. A week later, the cells were stained for LacZ expression, which allowed colony formation to be assayed.

[5] = test system: mixed subcutaneous tumors 20% 9L/FPGS and 80% 9L cells; assay: Growth of mixed subcutaneous tumors (20% 9L/FPGS + 80% 9L) in nude mice; type: in vivo; settings: 3 mg/kg daily i.p.
Experimental: (§1) In Vivo Experiments: 10^5 9L or 9L/FPGS cells or a mixture of 8×10^5 9L+2×10^5 9L/FPGS cells in 200 μL DMEM were injected subcutaneously into the flanks of six week old female nude mice (NCr/Sed, nu/nu, 20 gm; Massachusetts General Hospital breeding colony). After 14 days, when the tumors had reached an average volume of 60 mm^3, the mice were randomly divided into experimental groups with five mice per group. Intraperitoneal injections of varying MTX or EDX doses dissolved in 200 μL 0.9% NaCl were administered either daily or every third day. Tumor size was measured weekly using calipers. Tumor volume was calculated as length×width×height, as described previously (Takamiya, Y., et al., Journal of Neuroscience Research 33:493-503 (1992)).

[6] = test system: cocultures of 9L/FPGS and 9L cells; assay: Bystander effect study, cocultures of 9L/FPGS and 9L cells; type: cell-based, rat; settings: for EC50: Rattus norvegicus, 4 h, 4 hrs drug exposure, FIG. 4b, read-out: ED50 (the source's name); for transmission efficiency (TE): 4 hour pulses
Experimental: For bystander effect studies, cells were plated in triplicate with varying combinations of 9L/FPGS and 9L cells such that the total number of cells was 8×10^5 per 10-cm-diameter plate. The same protocol of 4 hour cell adherence followed by 4 hour drug exposure, washes, growth in drug free medium for 3 days, and counting on a ZM coulter apparatus was then followed. […] Four mL conditioned medium+2 mL fresh medium were added to 10-cm-diameter plates containing 9L/BAG cells plated overnight (1000 cells/dish, with a clonogenic efficiency of approximately 20%). Six days later, the cells were fixed with 4% paraformaldehyde in PBS. Fixed cells were stained for LacZ by incubating overnight in a solution containing 35 mM potassium ferricyanide, 35 mM potassium ferrocyanide, 2 mM magnesium chloride, and 0.2% 5-bromo-4-chloro-3-indolyl-β-D galactoside (Xgal; Fisher Scientific Co.;Pittsburgh, Pa.) at pH=7.3 (Price, J., et al., Proceedings of the National Academy of Sciences USA 84:156-160 (1987)). The next day, blue colonies greater than 1 mm in diameter were counted.
However, a more quantitative approach is to generate a dose-response curve for nontransfected cells, transfected cells, and a coculture and to calculate the transmission efficiency (TE) for the coculture (Friedlos, F., et al., Journal of Medicinal Chemistry 40:1270-1275 (1997)). [formula]
The superscripts 0, N, and 100 designate the ED50 values for cultures containing 0, N, and 100% transfected cells.

[7] = test system: 9L cells; assay: Cell culture survival study, 9L cells; type: cell-based, rat; settings: Rattus norvegicus, 4 h, 9L, read-out: ED50 (the source's name)
Experimental: (§2) Cell Culture Survival Studies: Cells were plated in triplicate at 8×10^5 cells per 10-cm-diameter plate, and were allowed to adhere for 4 hours, after which the medium was replaced with medium containing MTX or EDX. […] Drug-free medium was then added, and three days later the cells were trypsinized and counted on a model ZM Coulter apparatus. Dose-response curves were generated using Sigma Plot 3.0, which employs curve-fitting parameters based on the Marquardt-Levenberg method (Marquardt, D. W., Siam, J., J. Soc. Indust. Appl. Math 11:431-441 (1963)).

[8] = test system: subcutaneous 9L/FPGS tumors; assay: Growth of subcutaneous 9L/FPGS tumors in nude mice; type: in vivo; settings: 3 mg/kg daily i.p.
Experimental: as §1

[9] = test system: FPGS; settings: relative to MTX; cited from earlier work
[10] = in vivo; settings: nude, mouse, ip
[11] = test system: subcutaneous 9L tumors; assay: Growth of subcutaneous 9L tumors in nude mice; type: in vivo; settings: 3 mg/kg daily i.p.
Experimental: as §1

[12] = test system: 9L/FPGS cells; assay: Cell culture survival study, 9L/FPGS cells; type: cell-based, rat; settings: for EC50: Rattus norvegicus, 4 h, 9L/FPGS, read-out: ED50 (the source's name)
Experimental: as §2

[13] = test system: 9L/FPGS cells; assay: [3H]MTX accumulation and thin layer chromatography of MTX polyglutamates in 9L/FPGS cells; settings: 24 hour exposure to 2 μM MTX, TLC
Experimental: (§3) Thin Layer Chromatography of MTX Metabolites: 10^6 9L or 9L/FPGS cells were plated in 6-cm diameter dishes and allowed to adhere for 4 hours, after which cells were incubated overnight with 2 μM 3′, 5′, 7-[^3H] methotrexate (Moravek Biochemicals; Brea, Calif.). Cells were then trypsinized, centrifuged, resuspended in 300 μL deionized water, and sonicated for 45 seconds at half-maximal power. Sonicated cells were centrifuged briefly to remove cellular debris, after which protein concentration was calculated using the Bradford protein assay. Proteins were precipitated with 1 mL methanol at −20° C. for 2 hr. Precipitated proteins were removed by centrifugation at 20,000 g for 30 min, and the supernatant was then concentrated to 30 μL under a stream of N2 at 37° C. on a Meyer N-Evap Analytical Evaporator (Organomation Associates Inc., Northborough, Mass.). A 1 μL aliquot was scintillation counted—cpm were converted into moles of drug taken up by determining the cpm of a known quantity of [^3H] MTX. […] Plates were eluted with a chloroforrn-methanol-acetic acid mixture (2:2:1) containing 20 mg/mL cetyl trimethylammonium bromide (Sigma). Following elution, the plates were placed under ordinary fluorescent light for 2 days, after which 20 nmol unlabelled standards were visualized under long-wave ultraviolet light. Plates were run in duplicate and the average RF values of the standards were: MTX=0.66; MTX-G1=0.59; MTX-G2=0.44, MTX-G3=0.33; MTX-G4=0.27; MTX-G5=0.25. Regions corresponding to where standards migrated were marked in the sample lane, scraped individually into scintillation vials, and counted. The amount of each radioactive metabolite in a sample lane was determined as a percentage of the total radioactivity recovered from that sample lane, after subtraction of the background counts obtained from lanes lacking radioactive sample.

[14] = test system: 9L cells; assay: [3H]MTX accumulation and thin layer chromatography of MTX polyglutamates in 9L cells; settings: 24 hour exposure to 2 μM MTX, TLC
Experimental: as §3

[15] = test system: 9L cells transfected with HSV-TK; settings: 9L cells stably transfected with HSV-TK cDNA; cited from earlier work
[16] = 4 hour pulse, repeat of the dose-response curve (Table 3 footnote c)
[17] = 4 hrs drug exposure, curves of FIG. 1 (MTX) / FIG. 3a (EDX)

Nc1nc(=O)[nH]cc1F [5-fluorocytosine]
ED50 shift nontransfected versus transfected cells [1]: 80 fold

NC(=O)c1cc(N2CC2)c([N+](=O)[O-])cc1[N+](=O)[O-] [CB1954]
TE values ([2]; 1% cocultures): above 50%
TE values ([2]; 10% cocultures): above 70%

CCc1c2c(nc3ccc(OC(=O)N4CCC(N5CCCCC5)CC4)cc13)-c1cc3c(c(=O)n1C2)COC(=O)[C@]3(O)CC [CPT-11]
decrease in ED50 on transfection [3]: 8 fold

CCC(Cc1cnc2nc(N)nc(N)c2n1)c1ccc(C(=O)N[C@@H](CCC(=O)O)C(=O)O)cc1 (stereo partly shown) [EDX, Edatrexate]
9L/BAG colonies relative to conditioned medium from non-treated cells ([4]; conditioned medium from 9L cells pulsed with 0.3 μM for 4 hours): 83%
9L/BAG colonies relative to conditioned medium from non-treated cells ([4]; conditioned medium from 9L/FPGS cells pulsed with 0.3 μM for 4 hours): 47%
fold growth of tumor volume ([5]; after three weeks): 5 fold
fold growth of tumor volume ([5]; after two weeks): more than 4 fold
EC50 ([6]; coculture 1% 9L/FPGS): 605 nM
EC50 ([6]; coculture 10% 9L/FPGS): 337 nM
EC50 ([6]; coculture 20% 9L/FPGS): 134 nM
transmission efficiency (TE) ([6]; cocultures containing 1% 9L/FPGS cells): 33.1% and 33%
transmission efficiency (TE) ([6]; cocultures containing 10% 9L/FPGS cells): 63.8% and 64%
transmission efficiency (TE) ([6]; cocultures containing 20% 9L/FPGS cells): 87%
EC50 [7, 16]: 1200 nM
EC50 ([7]; 4 hrs drug exposure, bystander experiment FIG. 4b): 895 nM
EC50 [7, 17]: 1200 nM
growth of tumor volume ([8]; after three weeks): doubled in volume
fold growth of tumor volume ([8]; after two weeks): less than 4 fold
Km of FPGS, lower than its Km for MTX [9]: 4-5 fold
MTD [10]: 3 mg/kg/day
fold growth of tumor volume ([11]; after three weeks): 10 fold
fold growth of tumor volume ([11]; after two weeks): 8 fold
survival ([12]; 9L/FPGS cells, 300 nM, 4 hour pulse): below 10%
range of concentrations with statistically significant difference in survival between 9L and 9L/FPGS ([12]; 4 hour pulses): 10,000 fold
difference in ED50 between 9L and 9L/FPGS ([12]; 4 hour pulses, FIG. 1 / FIG. 3A): 67 fold
EC50 [12, 16]: 26 nM
EC50 ([12]; 4 hrs drug exposure, bystander experiment FIG. 4a (MTX) / 4b (EDX)): 20 nM
EC50 [12, 17]: 18 nM

CN(Cc1cnc2nc(N)nc(N)c2n1)c1ccc(C(=O)NC(CCC(=O)NC(CCC(=O)O)C(=O)O)C(=O)O)cc1 (stereo not shown) [MTX-G1]
POLYGLUTAMATE DISTRIBUTION (percentages of total sample lane radioactivity) [13]: 22%
POLYGLUTAMATE DISTRIBUTION (percentages of total sample lane radioactivity) [14]: 29%

CN(Cc1cnc2nc(N)nc(N)c2n1)c1ccc(C(=O)NC(CCC(=O)NC(CCC(=O)NC(CCC(=O)O)C(=O)O)C(=O)O)C(=O)O)cc1 (stereo not shown) [MTX-G2]
POLYGLUTAMATE DISTRIBUTION (percentages of total sample lane radioactivity) [13]: 19%
POLYGLUTAMATE DISTRIBUTION (percentages of total sample lane radioactivity) [14]: 15%

CN(Cc1cnc2nc(N)nc(N)c2n1)c1ccc(C(=O)NC(CCC(=O)NC(CCC(=O)NC(CCC(=O)NC(CCC(=O)O)C(=O)O)C(=O)O)C(=O)O)C(=O)O)cc1 (stereo not shown) [MTX-G3]
POLYGLUTAMATE DISTRIBUTION (percentages of total sample lane radioactivity) [13]: 18%
POLYGLUTAMATE DISTRIBUTION (percentages of total sample lane radioactivity) [14]: 13%

CN(Cc1cnc2nc(N)nc(N)c2n1)c1ccc(C(=O)NC(CCC(=O)NC(CCC(=O)NC(CCC(=O)NC(CCC(=O)NC(CCC(=O)O)C(=O)O)C(=O)O)C(=O)O)C(=O)O)C(=O)O)cc1 (stereo not shown) [MTX-G4]
POLYGLUTAMATE DISTRIBUTION (percentages of total sample lane radioactivity) [13]: 28%
POLYGLUTAMATE DISTRIBUTION (percentages of total sample lane radioactivity) [14]: 13%

CN(Cc1cnc2nc(N)nc(N)c2n1)c1ccc(C(=O)NC(CCC(=O)NC(CCC(=O)NC(CCC(=O)NC(CCC(=O)NC(CCC(=O)NC(CCC(=O)O)C(=O)O)C(=O)O)C(=O)O)C(=O)O)C(=O)O)C(=O)O)cc1 (stereo not shown) [MTX-G5]
POLYGLUTAMATE DISTRIBUTION (percentages of total sample lane radioactivity) [13]: 3%
POLYGLUTAMATE DISTRIBUTION (percentages of total sample lane radioactivity) [14]: 1%

Nc1nc(O)c2ncn(COC(CO)CO)c2n1 [ganciclovir]
ED50 shift nontransfected versus transfected cells [15]: 500 fold
